Experimental data taken from patent US7964531B2, “3-phenoxy-4-pyridazinol derivatives and herbicidal composition containing the same” (Mitsui Chemicals Agro, Inc., priority 2001, dated 2011).

Legend:
[1] = tested on: barnyardgrass (Echinochloa oryzicola Vasing.); test: Test Example 1: herbicidal effects, paddy-field pot test; type: in vivo; settings: wettable powder applied 3 days after transplanting, judged after 25 days
Experimental: (§1) A paddy soil was filled in 1/10,000 are pot, and seeds of barnyardgrass (Echinochloa oryzicola Vasing.), Scirpus joncoides and annual broad-leaved weeds (Lindernia spp., Rotala indica) which are awaken from dormancy were mixed at the surface layer of 1 cm. Also, tuber of Cyperus serotinus which is germinated was planted, and further seedlings of paddy-field rice at 2.2-leaf stage were transplanted, and they were grown under the flooded condition in a greenhouse. After 3 days from transplanting, a predetermined chemical dosage of the wettable powder prepared in accordance with Preparation example 1 was diluted in water, and the solution was applied to the pot and herbicidal effects and crop injury against transplanted paddy-field rice were judged after 25 days from the treatment. Also, 3-(2-allylphenoxy)-6-chloro-4-methoxypyridazine described in Chemical Pharmaceutical Bulletin, 1972, vol. 20, No. 10, pp. 2191-2203 was used as Comparative compound. Incidentally, herbicidal effects and crop injury against transplanted paddy-field rice were judged by the following judgment standard, and “-” in the table means no test was carried out.
(§2) Judgment Standard • 0: Growth inhibition rate; 0 to 10% • 1: Growth inhibition rate; 11 to 30% • 2: Growth inhibition rate; 31 to 50% • 3: Growth inhibition rate; 51 to 70% • 4: Growth inhibition rate; 71 to 90% • 5: Growth inhibition rate; 91 to 100%.

[2] = tested on: annual broad-leaved weeds (Lindernia spp., Rotala indica); test: as above; type: in vivo; settings: wettable powder applied 3 days after transplanting, judged after 25 days
Experimental: as §1, §2

Cyperus serotinus = test: as above; type: in vivo; settings: wettable powder applied 3 days after transplanting, judged after 25 days
Experimental: as §1, §2

[3] = tested on: transplanted paddy-field rice; test: Test Example 1: crop injury against transplanted paddy-field rice; type: in vivo; settings: wettable powder applied 3 days after transplanting, judged after 25 days
Experimental: as §1, §2

Scirpus joncoides = test: Test Example 1: herbicidal effects, paddy-field pot test; type: in vivo; settings: wettable powder applied 3 days after transplanting, judged after 25 days
Experimental: as §1, §2

## Cc1c(C)c(C)c(Oc2nnc(Cl)cc2O)c(C)c1C [Compound No. 2614, 6-Chloro-3-(2,3,4,5,6-pentamethylphenoxy)-4-pyridazinol]
other
  melting point: 238 to 240 °C (dec.)

## Cc1cccc(C2CC2)c1Oc1nnc(Cl)cc1OC(=O)CC(C)(C)C [Compound No. 2662, 6-Chloro-3-(2-cyclopropyl-6-methylphenoxy)-4-pyridazinyl 3,3-dimethylbutanoate]
other
  melting point: 91 to 92 °C

## C=C(C)C(=O)Oc1cc(Cl)nnc1Oc1c(C)cccc1C1CC1 [Compound No. 2677, 6-Chloro-3-(2-cyclopropyl-6-methylphenoxy)-4-pyridazinyl 2-methylacrylate]
other
  melting point: 98 to 100 °C

## Cc1cccc(C2CC2)c1Oc1nnc(Cl)cc1OC(=O)C(C)(C)Br [Compound No. 2697, 6-Chloro-3-(2-cyclopropyl-6-methylphenoxy)-4-pyridazinyl 2-bromo-2-methylpropanoate]
other
  melting point: 69 to 71 °C

## Cc1cccc(C2CC2)c1Oc1nnc(Cl)cc1OC(=O)C(C)(C)CCl [Compound No. 2703, 6-Chloro-3-(2-cyclopropyl-6-methylphenoxy)-4-pyridazinyl 3-chloro-2,2-dimethylpropanoate]
other
  melting point: 112 to 115 °C

## Cc1ccccc1Oc1nnc(Cl)cc1OC(=O)c1ccccc1C(=O)Oc1cc(Cl)nnc1Oc1ccccc1C [Compound No. 2827, Bis[6-chloro-3-(2-methylphenoxy)-4-pyridazinyl]phthalate]
other
  melting point: 157 to 158 °C

## Cc1cccc(C2CC2)c1Oc1nnc(Cl)cc1OC(=O)c1ccc(C(F)(F)F)cc1 [Compound No. 2988, 6-Chloro-3-(2-cyclopropyl-6-methylphenoxy)-4-pyridazinyl 4-(trifluoromethyl)benzoate]
other
  melting point: 127 to 128 °C

## Cc1cccc(C2CC2)c1Oc1nnc(Cl)cc1OC(=O)c1ccc(C(=O)Oc2cc(Cl)nnc2Oc2c(C)cccc2C2CC2)cc1 [Compound No. 3001, Bis[6-chloro-3-(2-cyclopropyl-6-methylphenoxy)-4-pyridazinyl]terephthalate]
other
  melting point: 247 to 249 °C

## Cc1cccc(C2CC2)c1Oc1nnc(Cl)cc1OC(=O)c1cc(Cl)ccc1Cl [Compound No. 3100, 6-Chloro-3-(2-cyclopropyl-6-methylphenoxy)-4-pyridazinyl 2,5-dichlorobenzoate]
other
  melting point: 128 to 130 °C

## COc1cccc(OC)c1C(=O)Oc1cc(Cl)nnc1Oc1c(C)cccc1C1CC1 [Compound No. 3162, 6-Chloro-3-(2-cyclopropyl-6-methylphenoxy)-4-pyridazinyl 2,6-dimethoxybenzoate]
other
  melting point: 127 to 128 °C

## Cc1cccc(C2CC2)c1Oc1nnc(Cl)cc1OC(=O)c1cc(Cl)cc(Cl)c1 [Compound No. 3226, 6-Chloro-3-(2-cyclopropyl-6-methylphenoxy)-4-pyridazinyl 3,5-dichlorobenzoate]
other
  melting point: 168 to 174 °C

## Cc1cc(C)cc(C(=O)Oc2cc(Cl)nnc2Oc2c(C)cccc2C2CC2)c1 [Compound No. 3243, 6-Chloro-3-(2-cyclopropyl-6-methylphenoxy)-4-pyridazinyl 3,5-dimethylbenzoate]
other
  melting point: 117 to 119 °C

## Cc1cccc(C2CC2)c1Oc1nnc(Cl)cc1OC(=O)c1cccn1C [Compound No. 3282, 6-Chloro-3-(2-cyclopropyl-6-methylphenoxy)-4-pyridazinyl 1-methyl-1H-pyrrole-2-carboxylate]
other
  melting point: 143 to 144 °C

## COc1cscc1C(=O)Oc1cc(Cl)nnc1Oc1c(C)cccc1C1CC1 [Compound No. 3378, 6-Chloro-3-(2-cyclopropyl-6-methylphenoxy)-4-pyridazinyl 4-methoxy-3-thiophenecarboxylate]
other
  melting point: 146 to 149 °C

## Cc1cccc(C2CC2)c1Oc1nnc(Cl)cc1OC(=O)c1cnccc1C(F)(F)F [Compound No. 3462, 6-Chloro-3-(2-cyclopropyl-6-methylphenoxy)-4-pyridazinyl 4-(trifluoromethyl)nicotinate]
other
  melting point: 92 to 93 °C

## Cc1cccc(C2CC2)c1Oc1nnc(Cl)cc1OC(=O)c1cc2ccccc2s1 [Compound No. 3504, 6-Chloro-3-(2-cyclopropyl-6-methylphenoxy)-4-pyridazinyl 1-benzothiophene-2-carboxylate]
other
  melting point: 105 to 107 °C

## Cc1cccc(C2CC2)c1Oc1nnc(Cl)cc1OC(=O)n1c(C)ccc1C [Compound No. 3630, 6-Chloro-3-(2-cyclopropyl-6-methylphenoxy)-4-pyridazinyl 2,5-dimethyl-1H-pyrrole-1-carboxylate]
other
  melting point: 208 to 210 °C

## Cc1cccc(C2CC2)c1Oc1nnc(Cl)cc1OC(=O)n1c2ccccc2c2ccccc21 [Compound No. 3714, 6-Chloro-3-(2-cyclopropyl-6-methylphenoxy)-4-pyridazinyl 9H-carbazole-9-carboxylate]
other
  melting point: 157 to 159 °C

## Cc1cc(OC(=O)c2ccccc2)ccc1Oc1nnc(Cl)cc1OC(=O)c1ccccc1 [Compound No. 3850, 4-{[4-(Benzoyloxy)-6-chloro-3-pyridazinyl]oxy}-3-methylphenyl benzoate]
other
  melting point: 118 to 120 °C

## Oc1cc(Cl)nnc1Oc1cccc2c1CC1CC21 (stereo not drawn) [Example 15]
[1]; chemical dosage 10 g/a
  Herbicidal effects Barnyard grass: 1 (Growth inhibition rate; 11 to 30%)
[2]; chemical dosage 10 g/a
  Herbicidal effects Broad leaf: 5 (Growth inhibition rate; 91 to 100%)
Cyperus serotinus; chemical dosage 10 g/a
  Herbicidal effects Cyperus serotinus: 5 (Growth inhibition rate; 91 to 100%)
[3]; chemical dosage 10 g/a
  Crop injury against transplanted rice: 0 (Growth inhibition rate; 0 to 10%)

## Cc1ccc(Oc2nnc(Cl)cc2O)c(C2CC2)c1 [Example 202]
[1]; chemical dosage 10 g/a
  Herbicidal effects Barnyard grass: 2 (Growth inhibition rate; 31 to 50%)
[2]; chemical dosage 10 g/a
  Herbicidal effects Broad leaf: 5 (Growth inhibition rate; 91 to 100%)
Cyperus serotinus; chemical dosage 10 g/a
  Herbicidal effects Cyperus serotinus: 4 (Growth inhibition rate; 71 to 90%)
[3]; chemical dosage 10 g/a
  Crop injury against transplanted rice: 0 (Growth inhibition rate; 0 to 10%)

## CCc1ccc(C2CC2)c(Oc2nnc(Cl)cc2O)c1 [Example 219]
[1]; chemical dosage 10 g/a
  Herbicidal effects Barnyard grass: 3 (Growth inhibition rate; 51 to 70%)
[1]; chemical dosage 20 g/a
  Herbicidal effects Barnyard grass: 4 (Growth inhibition rate; 71 to 90%)
[2]; chemical dosage 10 g/a
  Herbicidal effects Broad leaf: 5 (Growth inhibition rate; 91 to 100%)
[2]; chemical dosage 20 g/a
  Herbicidal effects Broad leaf: 5 (Growth inhibition rate; 91 to 100%)
Scirpus joncoides; chemical dosage 10 g/a
  Herbicidal effects Scirpus joncoides: 5 (Growth inhibition rate; 91 to 100%)
Scirpus joncoides; chemical dosage 20 g/a
  Herbicidal effects Scirpus joncoides: 5 (Growth inhibition rate; 91 to 100%)
[3]; chemical dosage 10 g/a
  Crop injury against transplanted rice: 0 (Growth inhibition rate; 0 to 10%)
[3]; chemical dosage 20 g/a
  Crop injury against transplanted rice: 0 (Growth inhibition rate; 0 to 10%)

## Oc1cc(Cl)nnc1Oc1c(Br)cccc1Br [Example 248]
[1]; chemical dosage 5 g/a
  Herbicidal effects Barnyard grass: 1 (Growth inhibition rate; 11 to 30%)
[1]; chemical dosage 10 g/a
  Herbicidal effects Barnyard grass: 3 (Growth inhibition rate; 51 to 70%)
[2]; chemical dosage 5 g/a
  Herbicidal effects Broad leaf: 5 (Growth inhibition rate; 91 to 100%)
[2]; chemical dosage 10 g/a
  Herbicidal effects Broad leaf: 5 (Growth inhibition rate; 91 to 100%)
Cyperus serotinus; chemical dosage 5 g/a
  Herbicidal effects Cyperus serotinus: 5 (Growth inhibition rate; 91 to 100%)
Cyperus serotinus; chemical dosage 10 g/a
  Herbicidal effects Cyperus serotinus: 5 (Growth inhibition rate; 91 to 100%)
[3]; chemical dosage 5 g/a
  Crop injury against transplanted rice: 0 (Growth inhibition rate; 0 to 10%)
[3]; chemical dosage 10 g/a
  Crop injury against transplanted rice: 0 (Growth inhibition rate; 0 to 10%)

## CC(C)c1cccc(I)c1Oc1nnc(Cl)cc1O [Example 258]
[1]; chemical dosage 10 g/a
  Herbicidal effects Barnyard grass: 3 (Growth inhibition rate; 51 to 70%)
[2]; chemical dosage 10 g/a
  Herbicidal effects Broad leaf: 5 (Growth inhibition rate; 91 to 100%)
[3]; chemical dosage 10 g/a
  Crop injury against transplanted rice: 0 (Growth inhibition rate; 0 to 10%)

## Oc1cc(Cl)nnc1Oc1c(F)cc(C2CC2)cc1C1CC1 [Example 313]
[1]; chemical dosage 20 g/a
  Herbicidal effects Barnyard grass: 1 (Growth inhibition rate; 11 to 30%)
[2]; chemical dosage 20 g/a
  Herbicidal effects Broad leaf: 5 (Growth inhibition rate; 91 to 100%)
[3]; chemical dosage 20 g/a
  Crop injury against transplanted rice: 0 (Growth inhibition rate; 0 to 10%)

## Cc1cc(C)c(Oc2nnc(Cl)cc2O)c(Br)c1 [Example 315]
[1]; chemical dosage 20 g/a
  Herbicidal effects Barnyard grass: 4 (Growth inhibition rate; 71 to 90%)
[2]; chemical dosage 20 g/a
  Herbicidal effects Broad leaf: 5 (Growth inhibition rate; 91 to 100%)
Cyperus serotinus; chemical dosage 20 g/a
  Herbicidal effects Cyperus serotinus: 5 (Growth inhibition rate; 91 to 100%)
[3]; chemical dosage 20 g/a
  Crop injury against transplanted rice: 0 (Growth inhibition rate; 0 to 10%)

## CCc1cc(I)cc(I)c1Oc1nnc(Cl)cc1O [Example 316]
[1]; chemical dosage 10 g/a
  Herbicidal effects Barnyard grass: 2 (Growth inhibition rate; 31 to 50%)
[1]; chemical dosage 20 g/a
  Herbicidal effects Barnyard grass: 3 (Growth inhibition rate; 51 to 70%)
[2]; chemical dosage 10 g/a
  Herbicidal effects Broad leaf: 5 (Growth inhibition rate; 91 to 100%)
[2]; chemical dosage 20 g/a
  Herbicidal effects Broad leaf: 5 (Growth inhibition rate; 91 to 100%)
[3]; chemical dosage 10 g/a
  Crop injury against transplanted rice: 0 (Growth inhibition rate; 0 to 10%)
[3]; chemical dosage 20 g/a
  Crop injury against transplanted rice: 0 (Growth inhibition rate; 0 to 10%)

## CN(C)C(=O)Oc1cc(Cl)nnc1Oc1ccccc1C1CC1 [Example 352]
[1]; chemical dosage 20 g/a
  Herbicidal effects Barnyard grass: 4 (Growth inhibition rate; 71 to 90%)
[2]; chemical dosage 20 g/a
  Herbicidal effects Broad leaf: 5 (Growth inhibition rate; 91 to 100%)
Scirpus joncoides; chemical dosage 20 g/a
  Herbicidal effects Scirpus joncoides: 5 (Growth inhibition rate; 91 to 100%)
[3]; chemical dosage 20 g/a
  Crop injury against transplanted rice: 0 (Growth inhibition rate; 0 to 10%)
